In patent US4518581A, “Imparting low- or anti-cariogenic property to orally-usable products” (Kabushiki Kaisha Hayashibara Seibutsu Kagaku Kenkyujo, priority 1981, dated 1985):

How the values were obtained:
[1] = target: T1, water-insoluble glucan producing enzyme (Streptococcus downei, UniProt P27470); test: Effect of saccharides on formation of water-insoluble glucan from sucrose (Experiment 3); format: biochemical, Streptococcus mutans 6715 strain; details: 1 ml 4 w/v % sucrose plus 1 ml 4 w/v % saccharide, 0.02 units enzyme, 37° C., 16 hours; sucrose control 300
T1 construct: endogenous in cells; host or cells: Streptococcus mutans 6715 strain (today S. sobrinus), culture supernatant, ammonium sulfate precipitate, dialyzed
Experimental: After completion of the cultivation, the culture was separated into cell precipitant and supernatant. Thereafter, to the supernatant was added with ammonium sulfate to give 60% saturation, and the resultant precipitant was dialyzed against 0.1M phosphate buffer (pH 7.2) to obtain an aqueous solution containing the enzyme.
The titers of the enzyme were assayed as follows: A mixture solution, consisting of 1 ml of 0.2M aqueous sucrose solution, 1 ml of water, 1 ml of 0.1M phosphate buffer containing 0.05 w/v % NaN3, and 0.5 ml of the enzyme solution (below 0.05 units), is incubated at 37° C. for 9 hours, followed by centrifugation of the reaction mixture. The resultant precipitant is mixed with 4 ml of 0.5N sodium hydroxide solution, and then incubated at this temperature for an additional one hour to dissolve the precipitant. The amount of water-insoluble glucan formed during the enzymatic reaction is then measured. One unit of the enzyme is defined as the amount of enzyme that transfers 1 μmole glucose from sucrose to the water-insoluble glucan in one minute.
Effects of some saccharides on the formation of water-insoluble glucan were tested: Water-insoluble glucan formation and inhibition thereof were determined according to the enzyme assay method as described in EXPERIMENT 1, except that the mixture solution contained sucrose, or sucrose and each saccharide as listed in TABLE I. The experiment was carried out as follows: A mixture solution, consisting of 1 ml of 4 w/v % aqueous sucrose solution, 1 ml of 4 w/v % aqueous solution of each saccharide as listed in TABLE I, 1.5 ml of 0.1M phosphate buffer containing 0.05 w/v % NaN3, and 0.5 ml of the enzyme solution (0.02 units), was incubated at 37° C. for 16 hours, and the water-insoluble glucan formation in the reaction mixture was determined according to the enzyme assy method.
In a control experiment, 1 ml of the above described saccharide solution was replaced with the same amount of water.
The inhibition degree was calculated with following equation:
Inhibition degree (%)=100-A/B×100
where A and B are respective amounts of the water-insoluble glucan formed (μg/ml) when the mixture solution contained sucrose or sucrose and each of the saccharides.

[2] = system: Streptococcus mutans 6715 strain; test: Organic acid formation from saccharides by Streptococcus mutans cells, pH-measurement (Experiment 4); format: cell-based; details: 37° C., 30 minutes; for organic acid formation from the saccharide: Streptococcus mutans 6715 cells; for pH-Level of the reaction mixture (organic acid formation): cell suspension, Stephan's buffer (pH 7.0), saccharide solution
Experimental: Organic acid formation from some saccharides by Streptococcus mutans was tested: Streptococcus mutans 6715 strain was cultivaed similarly as in EXPERIMENT 1, and the cells, obtained by centrifuging the culture, were washed with 0.9 w/v % sodium chloride solution, followed by additional centrifugation. Two ml of a mixture solution, consisting of 0.2 ml of the cell suspension, prepared from about 100 ml of the culture, 1.5 ml of Stephan's buffer, and 0.3 ml aqueous solution of each saccharide as listed in TABLE II, was incubated at 37° C. for 30 minutes, followed by pH-measurement of the reaction mixture. The Stephan's buffer was prepared by the method as reported by R. M. Stephan et al., Journal of Dental Research, Vol.26, pp.15-41 (1947): One ml of Solution I, prepared by dissolving 17.89 g Na2 HPO4. 12H2 O, 7.92 g KOH and 6.81 g KH2 PO4 in water to give a final volume of 100 ml, was placed in a 100-ml volumetric flask, and mixed with about 90 ml of water. To the flask was added 1 ml of Solution II, prepared by dissolving 4.54 g KH2 PO4, 0.32 g MgSO4.7H2 O, 0.57 g CaSO4.2H2 O and 10 ml of 3.5% hydrochloric acid solution in water to give a final volume of 100 ml. This mixture was diluted with additional water to obtain 100 ml of Stephan's buffer (pH 7.0).
The results are given in TABLE II, wherein the organic acid formation from the saccharides can be estimated by the pH-values.

[3] = target: T1, water-insoluble glucan producing enzyme; test: Effect of saccharides on formation of water-insoluble glucan from sucrose (Experiment 3); format: biochemical, Streptococcus mutans 6715 strain; details: saccharide reduced to 10% against sucrose: 1 ml 4 w/v % sucrose plus 1 ml 0.4 w/v % saccharide, 37° C., 16 hours

T1 sequence (P27470 39-1592): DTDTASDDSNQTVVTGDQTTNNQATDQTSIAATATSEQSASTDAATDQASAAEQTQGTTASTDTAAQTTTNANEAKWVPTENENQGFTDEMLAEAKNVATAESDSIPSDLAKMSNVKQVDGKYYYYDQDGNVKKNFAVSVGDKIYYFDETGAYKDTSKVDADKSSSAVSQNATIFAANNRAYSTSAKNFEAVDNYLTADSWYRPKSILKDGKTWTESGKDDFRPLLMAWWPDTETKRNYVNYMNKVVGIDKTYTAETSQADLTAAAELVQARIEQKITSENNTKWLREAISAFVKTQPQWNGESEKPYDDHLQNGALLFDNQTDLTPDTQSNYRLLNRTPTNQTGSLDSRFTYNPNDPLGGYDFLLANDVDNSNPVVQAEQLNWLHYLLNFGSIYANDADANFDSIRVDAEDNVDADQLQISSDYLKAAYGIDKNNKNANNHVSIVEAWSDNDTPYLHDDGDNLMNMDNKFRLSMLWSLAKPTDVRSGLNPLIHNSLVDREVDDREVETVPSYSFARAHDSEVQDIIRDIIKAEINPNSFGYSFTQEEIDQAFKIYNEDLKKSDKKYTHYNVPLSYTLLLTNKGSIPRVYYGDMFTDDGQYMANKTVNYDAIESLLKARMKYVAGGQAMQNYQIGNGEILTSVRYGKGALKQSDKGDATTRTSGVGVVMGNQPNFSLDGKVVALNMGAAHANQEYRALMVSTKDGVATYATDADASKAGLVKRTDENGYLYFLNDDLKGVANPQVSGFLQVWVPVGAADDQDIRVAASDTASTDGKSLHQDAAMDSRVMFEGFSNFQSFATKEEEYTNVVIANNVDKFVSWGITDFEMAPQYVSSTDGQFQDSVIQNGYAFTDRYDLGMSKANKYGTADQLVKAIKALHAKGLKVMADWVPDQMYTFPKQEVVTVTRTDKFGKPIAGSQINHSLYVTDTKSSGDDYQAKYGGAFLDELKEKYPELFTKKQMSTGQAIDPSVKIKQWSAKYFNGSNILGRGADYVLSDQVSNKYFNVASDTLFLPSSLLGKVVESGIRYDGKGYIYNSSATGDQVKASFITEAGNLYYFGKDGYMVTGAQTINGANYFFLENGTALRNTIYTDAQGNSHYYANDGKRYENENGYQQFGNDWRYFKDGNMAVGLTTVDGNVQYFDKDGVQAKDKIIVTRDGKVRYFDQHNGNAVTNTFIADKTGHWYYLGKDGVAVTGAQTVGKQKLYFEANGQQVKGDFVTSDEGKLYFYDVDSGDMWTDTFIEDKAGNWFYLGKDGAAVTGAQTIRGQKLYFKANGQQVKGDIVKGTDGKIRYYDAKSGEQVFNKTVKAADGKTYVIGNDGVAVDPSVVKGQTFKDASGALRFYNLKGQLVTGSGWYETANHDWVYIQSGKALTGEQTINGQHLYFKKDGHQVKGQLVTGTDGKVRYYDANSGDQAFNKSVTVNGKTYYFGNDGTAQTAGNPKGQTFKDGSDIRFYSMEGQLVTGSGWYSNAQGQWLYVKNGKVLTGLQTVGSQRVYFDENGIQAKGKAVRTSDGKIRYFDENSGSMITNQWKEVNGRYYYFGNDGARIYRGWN

For `OC[C@H]1O[C@H](OC[C@H]2O[C@H](OC[C@H]3OC(O)[C@H](O)[C@@H](O)[C@@H]3O)[C@H](O)[C@@H](O)[C@@H]2O)[C@H](O)[C@@H](O)[C@@H]1O` (stereo partly shown) [Isomaltotriose], the “A: amounts of water-insoluble glucan formed” value [1] was 36 µg/mL, the “organic acid formation from the saccharide” value [2] was “no organic acid formation” and the “pH-Level of the reaction mixture (organic acid formation)” value [2] was 7.0. The “C: inhibition degree of water-insoluble glucan formation” value (from here on “C: inhibition degree”) [3] was 49% and the “C: inhibition degree” value ([3]; listed as isomaltotriose) was 45-60%.
In the case of `OC[C@H]1O[C@H](OC[C@H]2O[C@H](O[C@H]3[C@H](O)[C@@H](O)C(O)O[C@@H]3CO)[C@H](O)[C@@H](O)[C@@H]2O)[C@H](O)[C@@H](O)[C@@H]1O` (stereo partly drawn) [Panose, 4-O-α-isomaltosyl glucose], the “A: amounts of water-insoluble glucan formed” value [1] is reported as 48 µg/mL, the “organic acid formation from the saccharide” value [2] is reported as “no organic acid formation” and the “pH-Level of the reaction mixture (organic acid formation)” value [2] is reported as 7.0. The “C: inhibition degree” value [3] was 47% and the “C: inhibition degree” value ([3]; listed as panose) was 45-60%.
